These results are taken from ChEMBL document CHEMBL5247632, “Current approaches and strategies to identify Hedgehog signaling pathway inhibitors for cancer therapy” (Eur J Med Chem, 2022).

For one assay, the target named is Protein smoothened (Homo sapiens, UniProt Q99835, D473H). As to the kind of experiment: Antagonist activity at SMO D473H mutant (unknown origin) expressed in mouse TM3 cells coexpressing Gli-luc reporter gene assessed as inhibition of Hh-Ag1.5 induced Gli luciferase activity incubated for 48 hrs by luminescence assay. Type of assay: cell-based. For orientation: In a reporter assay the amount or activity of a reporter protein is the signal.

Assay [1] in a line: Inhibition of hedgehog signalling in Shh-stimulated mouse NIH3T3 cells coexpressing firefly luciferase gene under control of Gli-promoter and renilla gene under control of constitutive promoter assessed as inhibition of Shh-N induced luciferase expression by dual luciferase reporter assay. Type of assay: cell-based.
The target of another assay is Sonic hedgehog protein (Homo sapiens, UniProt Q15465). As to the kind of experiment: Binding affinity to Shh (unknown origin) assessed as dissociation constant.
Assay [2] in a line: Inhibition of hedgehog signalling pathway in mouse Shh Light II cells expressing Gli-luciferase reporter gene assessed as inhibition of SHHN-induced luciferase activity. Type of assay: cell-based.
Assay [3] in a line: Inhibition of hedgehog signalling pathway in mouse NIH3T3 cells by Gli-Bla reporter assay. Type of assay: cell-based.

pIC50, pKd: −log10 of the molar value. Numbered stars: 1 amine (or outer) side, 2 acyl side, 3 side chain; on linkers, the order of the positions; unused ones are H or OH. Bridge positions count the residues as written; N and C are the ends. Peptide text beside a SMILES is read from it. CH2CH2 = C(C[*:2])[*:1]

One may read the pIC50 as the negative decadic logarithm of the IC50, by convention in mol/L. For orientation: pKd means the negative decadic logarithm of the Kd, by convention in mol/L.

Chain of Sonic hedgehog protein (Q15465 24-197 limits assumed): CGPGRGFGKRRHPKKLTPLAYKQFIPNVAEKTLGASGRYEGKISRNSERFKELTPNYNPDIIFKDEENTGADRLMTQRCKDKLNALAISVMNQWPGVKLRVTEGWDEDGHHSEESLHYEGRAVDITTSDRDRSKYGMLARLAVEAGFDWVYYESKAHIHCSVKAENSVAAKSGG
Chain of Protein smoothened (Q99835 28-787 D473H limits assumed): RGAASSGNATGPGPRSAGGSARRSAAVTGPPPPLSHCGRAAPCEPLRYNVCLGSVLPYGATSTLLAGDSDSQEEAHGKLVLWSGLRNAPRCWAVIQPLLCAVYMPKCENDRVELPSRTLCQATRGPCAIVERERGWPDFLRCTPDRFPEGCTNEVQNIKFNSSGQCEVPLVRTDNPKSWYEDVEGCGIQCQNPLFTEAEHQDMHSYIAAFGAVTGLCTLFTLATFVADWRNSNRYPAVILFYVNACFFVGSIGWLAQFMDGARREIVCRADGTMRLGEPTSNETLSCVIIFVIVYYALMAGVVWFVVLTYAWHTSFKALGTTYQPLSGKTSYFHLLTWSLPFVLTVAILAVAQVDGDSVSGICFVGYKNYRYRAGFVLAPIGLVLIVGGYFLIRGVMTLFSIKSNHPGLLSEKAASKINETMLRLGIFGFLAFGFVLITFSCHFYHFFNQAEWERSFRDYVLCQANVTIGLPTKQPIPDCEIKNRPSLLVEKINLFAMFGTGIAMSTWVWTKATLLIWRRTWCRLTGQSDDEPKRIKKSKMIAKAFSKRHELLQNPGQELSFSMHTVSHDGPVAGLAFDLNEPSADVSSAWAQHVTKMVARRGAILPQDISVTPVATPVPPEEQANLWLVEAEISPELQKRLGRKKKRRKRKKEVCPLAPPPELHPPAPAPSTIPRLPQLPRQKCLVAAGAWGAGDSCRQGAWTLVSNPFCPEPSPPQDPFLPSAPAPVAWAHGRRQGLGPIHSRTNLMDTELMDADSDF

As for `CC1C(=O)N(c2ccc(Cl)cc2)C(=O)N1Cc1ccccc1` (stereo not given), at Protein smoothened, the pIC50 was 7.30.

Regarding `CSCC[C@@H]1NC(=O)[C@H](C)NC(=O)[C@H](CCC(=O)O)NC(=O)[C@@H](NC(=O)[C@H](Cc2c[nH]c3ccccc23)NC(=O)[C@H](CO)NC(=O)[C@H](CC(C)C)NC(=O)[C@@H](NC(C)=O)[C@@H](C)O)Cc2ccc(cc2)OCCSC[C@@H](C(=O)N[C@H](C(=O)N[C@@H](CC(=O)O)C(=O)O)[C@@H](C)O)NC(=O)[C@H](CCSC)NC(=O)[C@H](CC(=O)O)NC1=O` (Ac-TLSWYEAMDMCTD-OH; linker 5-11 via CH2CH2), the negative-log IC50 (pIC50) in assay [1] is 6.60. The pKd at Sonic hedgehog protein was 6.77. Consider `CCC(C)n1ncn(-c2ccc(N3CCN(c4ccc(OCC5COC(Cn6cncn6)(c6ccc(Cl)cc6Cl)O5)cc4)CC3)cc2)c1=O` (stereo not given) [ITRACONAZOLE], for which the pIC50 in assay [2] is 6.30. Regarding `CS(=O)(=O)c1ccc(C(=O)Nc2ccc(Cl)c(-c3ccccn3)c2)c(Cl)c1` [VISMODEGIB], the pIC50 in assay [3] is 8.15.
